Values of other authors in patent US8007820B2, “Wide spectrum insecticide and miticide composition” (W. Neudorff GmbH KG, priority 2005, dated 2011).

Details: as formulated material

- shelf life: about three
Substance: Spinosad
